Literature values in patent publication US20200254002A1, “COMBINATION THERAPIES FOR TREATING MUSCULAR DYSTROPHY” (SAREPTA THERAPEUTICS, INC., priority 2017, published 2020).
“Also recorded” adds a separate entry of the source. Read-outs that look alike come from different tables or passages of the source.

How the values were obtained:
[1] = phase I clinical program in adults
[2] = system: Mdx mice
[3] = system: cNF-κB; conditions: in vitro
[4] = system: NF-κB p65
[5] = system: ryanodine receptor; conditions: patient cells and a mouse model of DMD
[6] = system: dystrophin; conditions: DMD patients
[7] = system: dystrophin protein
[8] = system: exon 53 of dystrophin pre-mRNA; conditions: for Exon skipping in DMD patients: all 25 patients, at least 48 weekly doses
[9] = system: normal human skeletal muscle cells or muscle cells from DMD patients; conditions: RT-PCR and Western blot
[10] = system: immune response; conditions: rat, in vivo
[11] = system: human DMD transcript; conditions: hDMD mouse model
[12] = Part 1 patients, 60-76 weeks dosing
[13] = Part 2 patients, ~48-51 weeks dosing
[14] = Part 2/Pl patients, 48-51 weeks

## CC/C=C\C/C=C\C/C=C\C/C=C\C/C=C\C/C=C\CCC(=O)NCCNC(=O)c1ccccc1O [CAT-1004, N-(2-[(4Z,7Z,10Z,13Z,16Z,19Z)-docosa-4,7,10,13,16,19-hexaenamido]ethyl)-2-hydroxybenzamide]
[1]
  Safety and tolerability: safe, well tolerated

## CC/C=C\C/C=C\C/C=C\C/C=C\C/C=C\CCCC(=O)NCCNC(=O)c1ccccc1O [CAT-1041]
[2]; mdx mice
  Exercise endurance: increased exercise endurance
  Inflammation and fibrosis: reduced inflammation and fibrosis
[2]; mdx mice, long-term studies
  Muscle fibrosis: reduces muscle fibrosis
  Muscle function: preserves muscle function
  Skeletal muscle weight: increases skeletal muscle weight
[2]; mdx mouse, long-term treatment
  Dystrophic phenotype: improves the phenotype
[2]; mouse DMD model
  Diaphragm function: improved diaphragm function
[3]
  cNF-κB activation: inhibit cNF-κB activation in vitro
[4]; GRMD dog, long-term treatment
  Dystrophic phenotype: improves the phenotype
[4]; dog DMD model
  Diaphragm function: improved diaphragm function

## O=C1CN(/N=C/c2ccc(-c3ccc([N+](=O)[O-])cc3)o2)C(O)=N1 [dantrolene]
[5]
  Antisense-mediated exon skipping: enhance antisense-mediated exon skipping

## all-P-ambo-[P,2′,3′-trideoxy-P-(dimethylamino)-2′,3′-imino-2′,3′-seco](2′a[…]5′)(GTTGCCTCCGGTTCTGAAGGTGTTC) 5′-[4-({2-[2-(2-hydroxyethoxy)ethoxy]ethoxy}carbonyl)-N,N-dimethylpiperazine-1-phosphonamidate] [SRP-4053]
[6]; above baseline
  Mean fiber intensity, de novo dystrophin: statistically significant increase (p<0.001) above baseline in de novo dystrophin
[6]; listed as Golodirsen
  Sarcolemmal dystrophin localization: correctly localized to the sarcolemma membrane; also recorded: observed in all patients
[7]; All patients
  Mean Change from baseline (SD), dystrophin by Western blot: 0.92 (1.01)
  On treatment Mean % normal (SD), dystrophin by Western blot: 1.02 (1.03) % normal
  Baseline Mean % normal (SD), dystrophin by Western blot: 0.09 (0.07) % normal
[7]; DMD patients, over baseline
  Dystrophin protein as measured by Western blot: statistically significant increase over baseline in dystrophin protein
[7]; [12]
  Mean Change from baseline (SD), dystrophin by Western blot: 1.29 (1.51)
  On treatment Mean % normal (SD), dystrophin by Western blot: 1.40 (1.57) % normal
  Baseline Mean % normal (SD), dystrophin by Western blot: 0.10 (0.09) % normal
[7]; [13]
  Mean Change from baseline (SD), dystrophin by Western blot: 0.75 (0.67)
  On treatment Mean % normal (SD), dystrophin by Western blot: 0.84 (0.64) % normal
  Baseline Mean % normal (SD), dystrophin by Western blot: 0.09 (0.06) % normal
[8]; All patients
  Decrease from Baseline (RT-PCR, patients): 0
  Fold Increase (RT-PCR exon skipping): 7.3
  Increase > 0.1 from Baseline (RT-PCR, patients): 25 (100.0%)
  Increase from Baseline (RT-PCR, patients): 25 (100.0%)
  No Increase > 0.1 from Baseline (RT-PCR, patients): 0
  Unchanged from Baseline (RT-PCR, patients): 0
[8]; Part 1 patients, 60-76 weeks
  Decrease from Baseline (RT-PCR, patients): 0
  Increase > 0.1 from Baseline (RT-PCR, patients): 8 (100.0%)
  Increase from Baseline (RT-PCR, patients): 8 (100.0%)
  No Increase > 0.1 from Baseline (RT-PCR, patients): 0
  Unchanged from Baseline (RT-PCR, patients): 0
[8]; [14]
  Decrease from Baseline (RT-PCR, patients): 0
  Increase > 0.1 from Baseline (RT-PCR, patients): 17 (100.0%)
  Increase from Baseline (RT-PCR, patients): 17 (100.0%)
  No Increase > 0.1 from Baseline (RT-PCR, patients): 0
  Unchanged from Baseline (RT-PCR, patients): 0
[8]
  Exon skipping in DMD patients: increase over baseline levels in exon skipping
[8]; listed as Golodirsen
  Exon skipping in DMD patients: observed in all patients

## eteplirsen
[9]
  Exon 51 skipping in vitro: potent inducer of exon 51 skipping
[10]
  Effect on the immune response: no adverse effect on the immune response
[11]
  Exon 51 skipping in vivo: confirmed in vivo
